Laboratory results published in patent US20060252749A1, “Lacosamide for add-on therapy of psychosis” (SRZ Properties, Inc., priority 2005, published 2006).
Entries after “also recorded” stand apart in the source; their conditions may differ.

Experiments:
[1] = test system: schizophrenia; conditions: cited from earlier work; for Effect on symptoms of schizophrenia: add-on to antipsychotics (Citrome 2003, p. 86); for Effect on psychosis / symptoms of schizophrenia, other anticonvulsants: reports on use in schizophrenia (Citrome 2003, p. 85)
[2] = range 60-400; cited from earlier work
[3] = test system: C57BL/6J mice; test: Prepulse inhibition (PPI) of the acoustic startle reflex in mice; assay type: in vivo; conditions: for Mean PPI: 30 min prior to testing
Source text: Chow and water were provided ad libitum for the duration of the study.
Responses were sampled every ms. The inter-trial interval was variable with an average of 15 s (range from 10 to 20 s).

[4] = test system: potassium currents; conditions: cited from earlier work
[5] = test system: GABA receptor subtypes; conditions: cited from earlier work
[6] = test system: voltage-gated calcium channels; conditions: cited from earlier work
[7] = test system: voltage-gated sodium channels; conditions: cited from earlier work

CCCC(CCC)C(=O)O [Valproate]
Effect on symptoms of schizophrenia [1]: preferentially reduce the positive symptoms | Effect on onset of action of the antipsychotic ([1]; add-on to olanzapine or risperidone (Casey et al. 2003)): enhance the onset of action

CCCCCCCCCC(=O)OCCN1CCN(CC/C=C2/c3ccccc3Sc3ccc(Cl)cc32)CC1 [Zuclopenthixol decanoate]
Minimum effective dose [2]: 200 mg/2 weeks

NC(=O)N1c2ccccc2C=Cc2ccccc21 [carbamazepine]
Clinical outcome compared with antipsychotic monotherapy ([1]; add-on to haloperidol): worse clinical outcome | Improvement on the total BPRS (brief psychiatric rating scale) ([1]; another study on the use of carbamazepine): failure to detect significant improvement

CN1CCN(C2=Nc3cc(Cl)ccc3Nc3ccccc32)CC1 [clozapine]
Mean PPI ([3]; VEH 1/clozapine 3 mg/kg i.p., PPI expressed as a percentage of the basic startle response): 45 ± 2

NCC1(CC(=O)O)CCCCC1 [gabapentin]
Effect on psychosis / symptoms of schizophrenia, other anticonvulsants [1]: general worsening of psychosis

COC[C@@H](NC(C)=O)C(=O)NCc1ccccc1 [lacosamide, (R)-2-acetamide-N-benzyl-3-methoxypropionamide]
Potentiation of potassium currents [4]: does not potentiate | Direct interaction with known GABA receptor subtypes [5]: does not directly interact | Mean PPI ([3]; lacosamide 3 mg/kg/VEH 2 i.p.): 29 ± 3 | Mean PPI ([3]; lacosamide 10 mg/kg/VEH 2 i.p.): 34 ± 3 | Mean PPI ([3]; lacosamide 30 mg/kg/VEH 2 i.p.): 27 ± 2 | Effect on prepulse inhibition compared to vehicle ([3]; lacosamide administered alone, any dose tested): did not have any significant effect; also recorded: no significant effect | Inhibition of voltage-gated calcium channels [6]: does not inhibit | Inhibition of voltage-gated sodium channels [7]: does not inhibit

Nc1nnc(-c2cccc(Cl)c2Cl)c(N)n1 [lamotrigine]
Effect on symptoms of schizophrenia [1]: preferentially reduce the positive symptoms | Effect in schizophrenia when added to clozapine ([1]; added to clozapine, double-blind placebo controlled clinical trial, treatment-resistant schizophrenia): beneficial for the treatment of treatment-resistant schizophrenia; also recorded: improvement of positive, not negative symptoms

CC1(C)O[C@@H]2[C@@H](CO[C@@]3(COS(N)(=O)=O)OC(C)(C)O[C@@H]23)O1 [topiramate]
Effect on psychosis / symptoms of schizophrenia, other anticonvulsants [1]: deterioration in both positive and negative symptoms
